Converted amounts (≈) assume the structure as drawn.
Tests used:
[1] = system: Mycobacterium avium; format: functional; conditions: 240 h
[2] = system: Mycolicibacter terrae; format: functional; conditions: 240 h
[3] = system: Mycobacterium tuberculosis; assay: microbe, parasite or virus in culture; conditions: H37Rv, 240 h
Description: Tuberculostatic activity against Mycobacterium tuberculosis H37Rv assessed as induction of penetration size stunting incubated for 10 days by vertical diffusion method

[4] = Toxicity in healthy mouse administered as single peroral dose measured after 14 days; format: organism-based; conditions: in vivo, po
[5] = system: Mycobacterium tuberculosis; assay: Antimicrobial activity against Mycobacterium tuberculosis; format: functional

SMILES: O=C(O)c1cc(F)c(F)cc1O
- MIC [1]: 0.7 µg/mL (≈ 4.02 µM)
- MIC [2]: 0.7 µg/mL (≈ 4.02 µM)
- MIC [3]: 0.7 µg/mL (≈ 4.02 µM)
- LD50 at 336 h [4]: > 300 mg/kg

SMILES: O=C(O)c1c(O)c(F)c(F)c(F)c1F
- MIC [1]: 0.7 µg/mL (≈ 3.33 µM)
- MIC [2]: 0.7 µg/mL (≈ 3.33 µM)
- MIC [3]: 0.7 µg/mL (≈ 3.33 µM)
- LD50 at 336 h [4]: 100 mg/kg

SMILES: O=C(O)c1ccc(F)c(F)c1O
- MIC [1]: 1.5 µg/mL (≈ 8.62 µM)
- MIC [2]: 1.5 µg/mL (≈ 8.62 µM)
- MIC [3]: 1.5 µg/mL (≈ 8.62 µM)
- LD50 at 336 h [4]: > 150 mg/kg

SMILES: O=C(O)c1cc(F)c(F)c(F)c1O
- MIC [3]: 6.5 µg/mL (≈ 33.8 µM)
- LD50 at 336 h [4]: > 100 mg/kg

SMILES: Nc1ccc(C(=O)O)c(O)c1 [AMINOSALICYLIC ACID]
- MIC [1]: 32 µg/mL (≈ 209 µM)
- MIC [5]: > 250 µg/mL
- MIC [3]: 0.3 µg/mL (≈ 1.96 µM)
- LD50 at 336 h [4]: 4000 mg/kg

SMILES: NNC(=O)c1ccncc1 [ISONIAZID]
- MIC [1]: 0.1 µg/mL (≈ 0.729 µM)
- MIC [2]: 0.1 µg/mL (≈ 0.729 µM)
- MIC [3]: 0.1 µg/mL (≈ 0.729 µM)
- LD50 at 336 h [4]: 100 mg/kg

SMILES: CC1COc2c(N3CCN(C)CC3)c(F)cc3c(=O)c(C(=O)O)cn1c23 (stereo not given) [OFLOXACIN]
- MIC [1]: 0.1 µg/mL (≈ 0.277 µM)
- MIC [2]: 0.1 µg/mL (≈ 0.277 µM)
- MIC [3]: 0.1 µg/mL (≈ 0.277 µM)
